# Source: US12410211B2, “V1A receptor partial agonist and method of use” (PharmaIN Corporation, priority 2020, dated 2025)
# Like-named read-outs stand apart in the source and are kept apart here. Marks after values point to notes of the source that are not given here.
# Key:
# [1] = Acute diuretic activity of Terlipressin, Tolvaptan and combinations in Wistar rats (Example 5); type: in vivo
# Protocol: The animals were then treated with Terlipressin (Bachem, Torrance CA), Tolvaptan (Fisher Scientific, Waltham, MA) and combination of the two compounds at various concentrations administered subcutaneously (n=4). Test articles were Terlipressin 0.05 mg/Kg and 0.15 mg/Kg, Tolvaptan 0.3 mg/Kg, and 1.0 mg/Kg, Terlipressin 0.05 mg/Kg+Tolvaptan 0.3 mg/Kg, Terlipressin 0.05 mg/Kg+Tolvaptan 1.0 mg/Kg, Terlipressin 0.15 mg/Kg+Tolvaptan 0.3 mg/Kg, and Terlipressin 0.15 mg/Kg+1.0 mg/Kg. Furosemide (Fisher Scientific, Waltham, MA) was used as positive control and dosed at 20 mg/kg via oral gavage. Control dosed vehicle group (9% tween 80; Fisher Scientific, Waltham MA) administered subcutaneously was included and the resulting data was subtracted from individual test article data. After the dose, animals were placed in the metabolic cage (Tecniplast; Province of Varese, Italy) and urine was collected and measured at 2, 4 and 8 hours after the dosing of test articles. Urine volumes were divided by the body weight (pre-dose) times 100 to express in ml/100 g body weight.
# V1a receptor = target: T1, V1a receptor (Homo sapiens, UniProt P37288); assay: V1a Human Vasopressin GPCR Cell Based Agonist Calcium Flux Assay; conditions: for Emax: read-out: V1a Highest agonist effect (% of AVP)
# T1 construct: host or cells: CHO cells
# T1 sequence (P37288 whole entry): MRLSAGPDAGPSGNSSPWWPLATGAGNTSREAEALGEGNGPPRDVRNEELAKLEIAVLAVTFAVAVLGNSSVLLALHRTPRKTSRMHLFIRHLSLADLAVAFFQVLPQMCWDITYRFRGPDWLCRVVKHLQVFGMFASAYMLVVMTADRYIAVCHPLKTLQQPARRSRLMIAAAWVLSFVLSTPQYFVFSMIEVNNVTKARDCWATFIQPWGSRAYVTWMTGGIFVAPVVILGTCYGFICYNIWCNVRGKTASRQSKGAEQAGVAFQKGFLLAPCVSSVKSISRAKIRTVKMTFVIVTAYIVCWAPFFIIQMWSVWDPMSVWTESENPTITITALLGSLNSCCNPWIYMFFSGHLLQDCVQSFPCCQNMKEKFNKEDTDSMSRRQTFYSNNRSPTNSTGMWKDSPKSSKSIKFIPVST
# [2] = cited from earlier work
# [3] = Therapeutic index (NOAEL/NOEL): paleness, lethargy, ataxia observation in Sprague-Dawley rats (Example 7); type: in vivo
# Method in brief: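 Male Sprague-Dawley rats, 8–10 weeks, under isoflurane (n=3 or 6), dosed IV or SC with test articles. Paleness judged by ear colour beside untreated controls; lethargy and ataxia scored by observation. Index expressed as NOAEL/NOEL ratio.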
# [4] = Telemetric evaluation of portal vein pressure in rats with bile duct ligation (Example 9); type: in vivo, Sprague Dawley rats; conditions: for Percent decrease (%) in Mean Portal Vein Pressure (MPVP) from BDL baseline prior to treatment: BDL rats n = 4, 12 μg/kg subcutaneous
# Protocol: For this study, animals (Sprague Dawley rats (240-300 g at surgery from Charles River Laboratory) were maintained at room temperatures (20 to 22° C.) with 14-hour light, 10-hour dark cycle when not performing study procedures. The mean portal vein pressure (MPVP) reduction efficacy of a peptide of Formula ([…] [SEQ ID NO. 13]; Mpa and C are disulfide bonded; represented as TA-1) was compared to terlipressin in telemetered male with Bile Duct Ligation (BDL) and Sham surgery. On Study Day 1, rats received bile duct ligation surgery and telemetry implantation. The BDL group (n=4) had two stands of silk suture tightened and tied to occlude the bile duct; the sham group (n=3) had sutures loosely tied around the bile duct so that no occlusion occurred. After recovery from surgery, all rats had their portal vein pressure monitored continuously via telemetry until Day 22. […] Terlipressin was administered through intravenous bolus into a lateral tail vein on Day 20 and 21. All animals were dosed under manual restraint. Systolic portal vein pressure and diastolic portal vein pressure were measured to calculate the Mean Portal Vein Pressure ([…] was analyzed by averaging 5 minute intervals for the first 4 hours after dose and thereafter averaging 1 hour intervals after dose until 24 hours. […] Telemetric evaluation of […] [SEQ ID NO. 13] and Terlipressin on portal vein pressure in rats with bile duct ligation. The animal room temperatures were set to maintain 20 to 22° C. A 14-hour light, 10-hour dark cycle was implemented unless interrupted by study procedures. Efficacy was assessed by evaluating mean portal vein pressure (MPVP) at different concentrations of Formula 1 and Terlipressin in telemetered male Sprague Dawley rats (240-300 g at surgery from Charles River Laboratory) with Bile Duct Ligation (BDL) and Sham surgery. On Study Day 1, rats received bile duct ligation surgery and telemetry implantation. The BDL group (n=4) had two stands of silk suture tightened and tied to occlude the bile duct; the sham group (n=3) had sutures loosely tied around the bile duct so that no occlusion occurred. After recovery from surgery, all rats had their portal vein pressure monitored continuously via telemetry until Day 22. […] Formula 1 was administered at different concentrations subcutaneously on Day 15 to 19, and Day 23; Terlipressin was administered through intravenous bolus into a lateral tail vein on Day 20 and 21. All animals were dosed under manual restraint. Systolic portal vein pressure and diastolic portal vein pressure were measured to calculate the Mean Portal Vein Pressure ([…] was analyzed by averaging 5 minute intervals for the first 4 hours after dose and thereafter averaging 1 hour intervals after dose until 24 hours.
# [5] = Acute diuretic activity of Tolvaptan and peptides of Formula (II) and (IV) in Wistar rats (Example 6); type: in vivo
# Protocol: In this study, Male Wistar Rats (˜8 weeks; Envigo; Somerset, NJ) were fasted overnight (18 hours; free access to water) followed by treatment with saline at 20 ml/Kg via oral gavage to have a uniform hydration of all the animals. The animals were then treated with various concentrations of test articles administered subcutaneously (n=4) (Table 5). Control dosed vehicle group (9% tween 80; Fisher Scientific, Waltham MA) administered subcutaneously was included and the resulting data was subtracted from individual test article data. After the dose, animals were placed in the metabolic cage (Tecniplast; Province of Varese, Italy) and urine was collected and measured at 2, 4 and 8 hours after the dosing of test articles. Urine volumes were divided by the body weight (pre-dose) times 100 to express in ml/100 g body weight. […] However, at any ratio, a tolvaptan dose of about 0.3 mg/Kg (i.e., 0.3+0.05 mg/Kg) administered in rats (allometrically equivalent to about 2-7 mg/human depending on persons weight) is an ideal dose that when combined with the composition of the present disclosure provides greater than 50% of the sum of individual diuretic effect administered alone. Low dose of 0.3 mg/Kg of subcutaneous tolvaptan is considered to be 13-fold below the effective safe human dose thus providing additional advantage to patients with liver disease. This can increase mean arterial blood pressure (MAP) which is a V1a effect caused by composition of the present disclosure while maintaining significant (at least 50% of the sum of individual diuretic effect administered alone) of both.
# [6] = S.C., at the Marked adverse effect dose
# [7] = S.C., at the Mild adverse effect dose
# [8] = peptide alone 0.015 mg/kg subcutaneous
# [9] = peptide alone 0.05 mg/kg subcutaneous
molecule,measurement,setting,value
NS(=O)(=O)c1cc(C(=O)O)c(NCc2ccco2)cc1Cl [Furosemide],Average mL of Urine per 100 gram body weight 8 hours cumulative (n = 4) minus Vehicle group (Tween 80); (SEM),[1]; Furosemide 20 mg/kg oral gavage (positive control),1.73 (0.22) mL per 100 gram body weight
"NCCCC[C@H](NC(=O)[C@@H]1CCCN1C(=O)[C@@H]1CSSC[C@H](N)C(=O)N[C@@H](Cc2ccc(O)cc2)C(=O)N[C@@H](Cc2ccccc2)C(=O)N[C@@H](CCC(N)=O)C(=O)N[C@@H](CC(N)=O)C(=O)N1)C(=O)NCC(N)=O [Lysine vasopressin (LVP), Lysine vasopressin, reference compound]",EC50,"V1a receptor; Table 3, CHO cells expressing human V1 receptor, read-out: Estimated V1a EC50 (nM), n = 2",1.65 nM
same,Emax,"V1a receptor; Table 3, n = 2",92.1%
same,V1a Highest agonist effect (% of AVP); n = 2,V1a receptor; Table 4,92.1 % of AVP
same,plasma half-life,[2]; in vivo,0.833 h
"NCC(=O)NCC(=O)NCC(=O)NCC(=O)NCC(=O)NCC(=O)NCCCC[C@H](NC(=O)[C@@H]1CCCN1C(=O)[C@@H]1CSSCCC(=O)N[C@@H](Cc2ccc(O)cc2)C(=O)N[C@@H](Cc2ccccc2)C(=O)N[C@@H](CCCC(N)=O)C(=O)N[C@@H](CC(N)=O)C(=O)N1)C(=O)NCC(N)=O [SEQ ID NO. 13, Mpa-Tyr-Phe-Hgn-Asn-Cys-Pro-Lys(X)a-Gly-NH2; (X)a = (Gly)6]",Emax,V1a receptor; n = 2,28.2%
same,"Paleness (Duration, hrs; SD)",[3]; [6],(>5.6)* hrs
same,"Paleness (Duration, hrs; SD)",[3]; [7],(6.23 ± 0.06) hrs
same,"Paleness (Duration, hrs; SD)","[3]; S.C., at the NOAEL dose",(6.07 ± 0.08) hrs
same,"Paleness (Duration, hrs; SD)","[3]; S.C., at the NOEL dose",None observed
same,Highest dose with no-observed effect level or paleness (NOEL),"[3]; S.C., rat",0.003 mg/kg
same,NOAEL at 24 h,"[3]; male, Sprague-Dawley, in vivo, sc, S.C., rat, read-out: Highest dose with no-observed adverse effect level without lethargy (NOAEL)",0.3 mg/kg
same,Marked adverse effect (Lowest dose first showed Ataxia),"[3]; rat, in vivo, sc",5.0 mg/kg
same,Mild adverse effect (Lowest dose first showed Lethargy),"[3]; rat, in vivo, sc",0.5 mg/kg
same,drop in portal pressure compared to Terlipressin (41 ug/kg),"[4]; 12 ug/kg dose, BDL rats",more effective in providing a sustain drop in portal pressure
same,Percent decrease (%) in Mean Portal Vein Pressure (MPVP) from BDL baseline prior to treatment,[4]; Time 1 hr,5%
same,Percent decrease (%) in Mean Portal Vein Pressure (MPVP) from BDL baseline prior to treatment,[4]; Time 4 hr,−30.5%
same,Percent decrease (%) in Mean Portal Vein Pressure (MPVP) from BDL baseline prior to treatment,[4]; Time 7 hr,−10.5%
same,Percent decrease (%) in Mean Portal Vein Pressure (MPVP) from BDL baseline prior to treatment,[4]; Time 20 hr,−29.75%
NCCCC[C@H](NC(=O)[C@@H]1CCCN1C(=O)[C@@H]1CSSCCC(=O)N[C@@H](Cc2ccc(O)cc2)C(=O)N[C@@H](Cc2ccccc2)C(=O)N[C@@H](CCC(N)=O)C(=O)N[C@@H](CC(N)=O)C(=O)N1)C(=O)NCC(N)=O [SEQ ID NO. 32],Average 8 hours cumulative Urine Volume: mL per 100 gram body weight (SEM; n = 4) minus Tween 80 vehicle group,[5]; peptide alone 0.005 mg/kg subcutaneous,0.80 (0.50) mL per 100 gram body weight
same,Average 8 hours cumulative Urine Volume: mL per 100 gram body weight (SEM; n = 4) minus Tween 80 vehicle group,[5]; [8],0.86 (0.28) mL per 100 gram body weight
same,Average 8 hours cumulative Urine Volume: mL per 100 gram body weight (SEM; n = 4) minus Tween 80 vehicle group,[5]; [9],0.74 (0.55) mL per 100 gram body weight
same,"Paleness (Duration, hrs; SD)",[3]; [6],(4.79 ± 0.08) hrs
same,"Paleness (Duration, hrs; SD)",[3]; [7],(4.45 ± 0.26) hrs
same,"Paleness (Duration, hrs; SD)","[3]; S.C., at the NOAEL dose",(3.54 ± 0.11) hrs
same,"Paleness (Duration, hrs; SD)","[3]; S.C., at the NOEL dose",None observed
same,Highest dose with no-observed effect level or paleness (NOEL),"[3]; S.C., rat",0.0005 mg/kg
same,NOAEL/NOEL (therapeutic index),"[3]; S.C., rat",20
same,NOAEL,"[3]; in vivo, sc, S.C., rat, read-out: Highest dose with no-observed adverse effect level without lethargy (NOAEL)",0.01 mg/kg
same,Marked adverse effect (Lowest dose first showed Ataxia),"[3]; rat, in vivo, sc",0.1 mg/kg
same,Mild adverse effect (Lowest dose first showed Lethargy),"[3]; rat, in vivo, sc",0.03 mg/kg
Cc1ccccc1C(=O)Nc1ccc(C(=O)N2CCCC(O)c3cc(Cl)ccc32)c(C)c1 (stereo not drawn) [Tolvaptan],Average 8 hours cumulative Urine Volume: mL per 100 gram body weight (SEM; n = 4) minus Tween 80 vehicle group,[5]; Tolvaptan 0.3 mg/kg subcutaneous,0.65 (0.16) mL per 100 gram body weight
same,Average mL of Urine per 100 gram body weight 8 hours cumulative (n = 4) minus Vehicle group (Tween 80); (SEM),[1]; Tolvaptan 0.3 mg/Kg subcutaneous,0.65 (0.16) mL per 100 gram body weight
same,Average mL of Urine per 100 gram body weight 8 hours cumulative (n = 4) minus Vehicle group (Tween 80); (SEM),[1]; Tolvaptan 1.0 mg/Kg subcutaneous,7.29 (0.46) mL per 100 gram body weight
NC(=O)CC[C@@H]1NC(=O)[C@H](Cc2ccccc2)NC(=O)[C@H](Cc2ccc(O)cc2)NC(=O)[C@@H](N)CSSC[C@@H](C(=O)N2CCC[C@H]2C(=O)N[C@@H](CCCN=C(N)N)C(=O)NCC(N)=O)NC(=O)[C@H](CC(N)=O)NC1=O [Vasopressin],excreted through the kidney,[2]; in vivo,65%
same,metabolized by liver and kidney vasopressinases,[2]; in vivo,35%
same,protein binding,[2]; in vivo,not protein-bound
same,volume of distribution,[2]; plasma,0.14 L/kg
NC(=O)CC[C@@H]1NC(=O)[C@H](Cc2ccccc2)NC(=O)[C@H](Cc2ccc(O)cc2)NC(=O)CCSSC[C@@H](C(=O)N2CCC[C@H]2C(=O)N[C@H](CCCN=C(N)N)C(=O)NCC(N)=O)NC(=O)[C@H](CC(N)=O)NC1=O [desmopressin],half-life,[2]; in vivo,2 h
Mpa-Tyr-Phe-Gln-Asn-Cys-Pro-Lys(X)a-Gly-NH2; (X)a = (Gly)5 [SEQ ID NO. 33],Average 8 hours cumulative Urine Volume: mL per 100 gram body weight (SEM; n = 4) minus Tween 80 vehicle group,[5]; [8],1.11 (0.11) mL per 100 gram body weight
same,Average 8 hours cumulative Urine Volume: mL per 100 gram body weight (SEM; n = 4) minus Tween 80 vehicle group,[5]; [9],1.32 (0.09) mL per 100 gram body weight
same,Average 8 hours cumulative Urine Volume: mL per 100 gram body weight (SEM; n = 4) minus Tween 80 vehicle group,[5]; peptide alone 0.15 mg/kg subcutaneous,1.85 (0.20) mL per 100 gram body weight
